The values that follow come from ChEMBL document CHEMBL1909046, “DrugMatrix in vitro pharmacology data”.

The target of test [1] is T1, Type-2 angiotensin II receptor (Homo sapiens, UniProt P50052). Note: in other assays of this panel Not Active means under 50% inhibition at 10 µM.
T1 sequence (P50052 whole entry): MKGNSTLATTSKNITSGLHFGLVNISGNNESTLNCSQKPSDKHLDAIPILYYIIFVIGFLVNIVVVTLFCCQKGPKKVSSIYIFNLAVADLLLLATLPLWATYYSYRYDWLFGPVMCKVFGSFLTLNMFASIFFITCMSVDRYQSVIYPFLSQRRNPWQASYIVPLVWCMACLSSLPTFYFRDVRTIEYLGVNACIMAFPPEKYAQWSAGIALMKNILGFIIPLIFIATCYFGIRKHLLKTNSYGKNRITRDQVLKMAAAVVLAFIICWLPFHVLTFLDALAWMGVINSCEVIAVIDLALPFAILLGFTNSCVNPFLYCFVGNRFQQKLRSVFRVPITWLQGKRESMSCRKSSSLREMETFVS
The format is cell-based. The following applies: cho-k1.

For test [2], the target named is Vascular endothelial growth factor receptor 1 (Homo sapiens, UniProt P17948). The test is described as follows: biochemical. It is filed as cell-based, HUVEC. Note: in other assays of this panel Not Active means under 50% inhibition at 10 µM.
Sequence of Vascular endothelial growth factor receptor 1 (P17948 whole entry): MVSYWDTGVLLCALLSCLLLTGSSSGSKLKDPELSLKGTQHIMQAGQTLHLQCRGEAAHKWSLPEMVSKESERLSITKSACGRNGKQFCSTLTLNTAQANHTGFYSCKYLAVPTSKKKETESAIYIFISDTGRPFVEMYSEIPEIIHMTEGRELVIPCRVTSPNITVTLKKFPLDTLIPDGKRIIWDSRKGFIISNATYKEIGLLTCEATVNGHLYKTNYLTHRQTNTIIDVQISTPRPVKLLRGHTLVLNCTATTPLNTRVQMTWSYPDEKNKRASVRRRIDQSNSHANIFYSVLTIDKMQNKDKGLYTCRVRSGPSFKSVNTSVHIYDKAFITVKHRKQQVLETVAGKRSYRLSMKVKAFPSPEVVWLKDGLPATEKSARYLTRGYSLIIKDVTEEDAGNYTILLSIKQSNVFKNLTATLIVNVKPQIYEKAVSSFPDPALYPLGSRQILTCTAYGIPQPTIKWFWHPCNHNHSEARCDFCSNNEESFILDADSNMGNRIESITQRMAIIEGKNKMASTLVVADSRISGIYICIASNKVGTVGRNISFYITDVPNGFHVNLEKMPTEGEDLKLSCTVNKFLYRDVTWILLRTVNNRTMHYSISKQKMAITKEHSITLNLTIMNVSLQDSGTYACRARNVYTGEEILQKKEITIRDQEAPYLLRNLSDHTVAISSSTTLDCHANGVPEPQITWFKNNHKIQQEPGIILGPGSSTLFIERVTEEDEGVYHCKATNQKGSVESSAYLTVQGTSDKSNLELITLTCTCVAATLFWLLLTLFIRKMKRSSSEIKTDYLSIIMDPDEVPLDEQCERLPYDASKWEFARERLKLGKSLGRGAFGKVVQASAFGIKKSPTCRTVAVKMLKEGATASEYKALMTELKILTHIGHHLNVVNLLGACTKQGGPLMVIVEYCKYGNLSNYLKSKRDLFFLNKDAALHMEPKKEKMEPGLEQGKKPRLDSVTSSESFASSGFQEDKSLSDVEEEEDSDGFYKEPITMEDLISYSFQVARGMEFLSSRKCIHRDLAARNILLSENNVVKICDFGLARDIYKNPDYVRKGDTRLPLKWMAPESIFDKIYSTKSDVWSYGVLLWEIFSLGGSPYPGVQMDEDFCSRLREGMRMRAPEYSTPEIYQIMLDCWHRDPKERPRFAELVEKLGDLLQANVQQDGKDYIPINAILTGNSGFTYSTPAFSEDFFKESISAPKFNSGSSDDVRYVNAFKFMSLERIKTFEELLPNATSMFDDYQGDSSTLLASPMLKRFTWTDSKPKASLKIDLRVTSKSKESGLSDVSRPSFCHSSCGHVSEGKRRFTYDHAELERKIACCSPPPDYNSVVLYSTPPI
In test [3] the target is Prostaglandin G/H synthase 1 (Homo sapiens, UniProt P23219). The test is described as follows: biochemical. The format is tissue-based, Platelet. The conditions noted are these: platelet.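 Note: inhibition of COX-1 enzyme activity, with arachidonic acid supplied as substrate; in other assays of this panel Not Active means under 50% inhibition at 10 µM.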
Sequence of Prostaglandin G/H synthase 1 (P23219 whole entry): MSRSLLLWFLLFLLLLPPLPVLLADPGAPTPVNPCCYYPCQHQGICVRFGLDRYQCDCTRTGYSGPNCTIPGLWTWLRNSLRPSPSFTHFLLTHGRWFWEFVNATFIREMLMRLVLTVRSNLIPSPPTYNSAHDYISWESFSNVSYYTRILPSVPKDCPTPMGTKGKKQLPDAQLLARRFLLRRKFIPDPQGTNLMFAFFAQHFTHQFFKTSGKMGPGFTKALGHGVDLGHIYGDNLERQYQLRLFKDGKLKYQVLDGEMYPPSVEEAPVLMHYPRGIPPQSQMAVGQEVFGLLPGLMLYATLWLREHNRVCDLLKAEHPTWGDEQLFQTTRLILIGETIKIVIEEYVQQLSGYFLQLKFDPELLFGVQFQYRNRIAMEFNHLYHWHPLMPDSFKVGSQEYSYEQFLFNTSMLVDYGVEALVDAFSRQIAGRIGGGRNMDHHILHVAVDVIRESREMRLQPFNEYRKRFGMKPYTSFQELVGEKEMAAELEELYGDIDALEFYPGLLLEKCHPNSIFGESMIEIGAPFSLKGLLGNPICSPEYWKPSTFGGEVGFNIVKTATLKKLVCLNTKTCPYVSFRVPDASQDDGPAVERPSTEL
Test [4] can be described thus: DRUGMATRIX: Glutamate, AMPA radioligand binding (ligand: [3H] AMPA). The format is cell membranes, Rattus norvegicus, Wistar, Cerebral cortex, Membrane. The following applies: Not Active = under 50% inhibition at 10 µM.
Test [5] in a line: DRUGMATRIX: Potassium Channel [KATP] radioligand binding (ligand: [3H] Glyburide). The format is cell membranes, Membrane. The following applies: hit-t15; Not Active = under 50% inhibition at 10 µM.
Test [6] has as its target 5-hydroxytryptamine receptor 1B (Rattus norvegicus, UniProt P28564). The format is cell membranes, Wistar, Cerebral cortex, Membrane. Note: in other assays of this panel Not Active means under 50% inhibition at 10 µM.

Sequence of 5-hydroxytryptamine receptor 1B (P28564 whole entry): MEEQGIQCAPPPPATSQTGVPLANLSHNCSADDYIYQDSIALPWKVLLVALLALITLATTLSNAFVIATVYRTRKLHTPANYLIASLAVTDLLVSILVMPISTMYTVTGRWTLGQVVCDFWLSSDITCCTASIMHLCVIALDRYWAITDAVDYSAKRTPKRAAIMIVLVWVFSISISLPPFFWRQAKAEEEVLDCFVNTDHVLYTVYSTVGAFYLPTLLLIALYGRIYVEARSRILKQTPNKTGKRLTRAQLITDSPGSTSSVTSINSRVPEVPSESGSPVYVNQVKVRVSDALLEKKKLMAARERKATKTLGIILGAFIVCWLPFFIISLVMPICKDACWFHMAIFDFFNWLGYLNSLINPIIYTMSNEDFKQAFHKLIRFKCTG

Take `Nn1nnc2ccccc21`: the IC50 result in test [1], in test [2] (huvec), in test [3], in test [4], in test [5] and in test [6] was “Not Active” in each case. Also, the Ki entry in test [4] and in test [5] was “Not Active” each time.
Take `CC[C@]1(O)CC[C@H]2[C@@H]3CCC4=CCCC[C@@H]4[C@H]3CC[C@@]21C`: the IC50 result in test [1], in test [2] (huvec), in test [3], in test [4], in test [5] and in test [6] was “Not Active” each time. Moreover, the inhibition constant Ki result in test [4] and in test [5] was “Not Active” in each case.
As for `N[C@@H](Cc1ccc(F)cc1)C(=O)O`, the IC50 entry in test [1], in test [2] (huvec), in test [3], in test [4], in test [5] and in test [6] was “Not Active” in each case. Further, the Ki entry in test [4] and in test [5] was “Not Active” throughout.
`CCOC(=O)[C@H](CCc1ccccc1)N[C@@H](C)C(=O)N1Cc2ccccc2C[C@H]1C(=O)O`: the half-inhibitory concentration (IC50) entry in test [1], in test [2] (huvec), in test [3], in test [4], in test [5] and in test [6] was “Not Active” each time. The inhibition constant (Ki) result in test [4] and in test [5] was “Not Active” each time.
Regarding `O=C(c1ccccc1Cl)N1CCC(Cc2ccccc2)CC1`, the IC50 entry in test [1], in test [2] (huvec), in test [3], in test [4], in test [5] and in test [6] was “Not Active” throughout. Further, the Ki entry in test [4] and in test [5] was “Not Active” throughout.
Turning to `CCOC(=O)[C@H](CCc1ccccc1)N[C@@H](C)C(=O)N1CCC[C@H]1C(=O)O`, the IC50 result in test [1], in test [2] (huvec), in test [3], in test [4], in test [5] and in test [6] was “Not Active” each time. Also, the Ki result in test [4] and in test [5] was “Not Active” in each case.
For `Clc1cc2c(cc1Cl)Oc1cc(Cl)c(Cl)cc1O2` [2,3,7,8-TETRACHLORODIBENZO-P-DIOXIN], the IC50 (commonly the concentration at which inhibition is half-maximal) was “Not Active” in test [1]; 2.69 nM in test [2] (read-out: IC50); “Not Active” in test [3]; “Not Active” in test [4]; “Not Active” in test [5]; “Not Active” in test [6]. Further, the Ki (usually a measure of affinity in units of concentration, obtained from inhibition or displacement) in test [2] (read-out: Ki) is 0.697 nM; in test [4], “Not Active”; in test [5], “Not Active”.
`C=C1/C(=C\C=C2/CCC[C@]3(C)[C@@H]([C@H](C)CCCC(C)C)CC[C@@H]23)C[C@@H](O)C[C@@H]1O` [ALFACALCIDOL]: the half-inhibitory concentration (IC50) result in test [1], in test [2] (huvec), in test [3], in test [4], in test [5] and in test [6] was “Not Active” each time. The inhibitory constant (Ki) entry in test [4] and in test [5] was “Not Active” in each case.
For `CCCCCC[C@H]1C(=O)O[C@H](C)[C@H](NC(=O)c2cccc(NC=O)c2O)C(=O)O[C@@H](C)[C@@H]1OC(=O)CC(C)C` [ANTIMYCIN A], the IC50 result in test [1], in test [2] (huvec), in test [3], in test [4], in test [5] and in test [6] was “Not Active” in each case. Moreover, the Ki entry in test [4] and in test [5] was “Not Active” in each case.
Take `C[C@@H]1CC[C@H]2[C@@H](C)C(=O)O[C@@H]3O[C@@]4(C)CC[C@@H]1[C@]32OO4` [ARTEMISININ]: the IC50 result in test [1], in test [2] (huvec), in test [3], in test [4], in test [5] and in test [6] was “Not Active” in each case. The Ki entry in test [4] and in test [5] was “Not Active” each time.
On to `CO[C@H]1[C@@H](O)[C@H](N)[C@@H](O[C@H]2O[C@H]([C@H](C)N)CC[C@H]2N)[C@H](O)[C@@H]1N(C)C(=O)CN` [ASTROMICIN], for which the IC50 result in test [1], in test [2] (huvec), in test [3], in test [4], in test [5] and in test [6] was “Not Active” throughout. The Ki result in test [4] and in test [5] was “Not Active” each time.
`[N-]=[N+]=CC(=O)OC[C@H](N)C(=O)O` [AZASERINE]: the IC50 entry in test [1], in test [2] (huvec), in test [3], in test [4], in test [5] and in test [6] was “Not Active” each time. The Ki entry in test [4] and in test [5] was “Not Active” in each case.
For the compound `CC[C@H]1OC(=O)[C@H](C)[C@@H](O[C@H]2C[C@@](C)(OC)[C@@H](O)[C@H](C)O2)[C@H](C)[C@@H](O[C@@H]2O[C@H](C)C[C@H](N(C)C)[C@H]2O)[C@](C)(O)C[C@@H](C)CN(C)[C@H](C)[C@@H](O)[C@]1(C)O` [AZITHROMYCIN], the IC50 entry in test [1], in test [2] (huvec), in test [3], in test [4], in test [5] and in test [6] was “Not Active” throughout. In addition, the inhibitory constant (Ki) entry in test [4] and in test [5] was “Not Active” in each case.
In the case of `CC(C)(C)c1ccc(S(=O)(=O)/C=C/C#N)cc1` [BAY-11-7085], the IC50 entry in test [1], in test [2] (huvec), in test [3], in test [4], in test [5] and in test [6] was “Not Active” in each case. Further, the Ki entry in test [4] and in test [5] was “Not Active” each time.
Consider `CCc1oc2ccccc2c1C(=O)c1cc(Br)c(O)c(Br)c1` [BENZBROMARONE], for which the IC50 result in test [1], in test [2] (huvec), in test [3], in test [4], in test [5] and in test [6] was “Not Active” throughout. In addition, the Ki result in test [4] and in test [5] was “Not Active” throughout.
In the case of `C[C@H](C(=O)O)c1cccc(C(=O)c2ccccc2)c1` [DEXKETOPROFEN], the IC50 entry in test [1], in test [2] (huvec), in test [4], in test [5] and in test [6] was “Not Active” in each case. Further, the Ki result in test [4] and in test [5] was “Not Active” throughout.
With `CC(C(=O)O)c1ccc(-c2ccccc2)c(F)c1` (stereo unspecified) [FLURBIPROFEN], the IC50 result in test [1], in test [2] (huvec), in test [4], in test [5] and in test [6] was “Not Active” in each case. Moreover, the Ki entry in test [4] and in test [5] was “Not Active” each time.
Turning to `CC[C@H](C)C(=O)O[C@H]1C[C@@H](C)C=C2C=C[C@H](C)[C@H](CC[C@@H]3C[C@@H](O)CC(=O)O3)[C@H]21` [LOVASTATIN], the IC50 entry in test [1], in test [2] (huvec), in test [3], in test [4] and in test [6] was “Not Active” each time. In addition, the inhibitory constant (Ki) result in test [4] is “Not Active”.
